Assay results as given in ChEMBL document CHEMBL1133776, “A rapid computational method for lead evolution: description and application to alpha(1)-adrenergic antagonists” (J Med Chem, 2000).

Biological target: T1, Adrenergic receptor alpha-1 (Rattus norvegicus, UniProt P15823+P23944+P43140)
T1 sequence (P15823 whole entry): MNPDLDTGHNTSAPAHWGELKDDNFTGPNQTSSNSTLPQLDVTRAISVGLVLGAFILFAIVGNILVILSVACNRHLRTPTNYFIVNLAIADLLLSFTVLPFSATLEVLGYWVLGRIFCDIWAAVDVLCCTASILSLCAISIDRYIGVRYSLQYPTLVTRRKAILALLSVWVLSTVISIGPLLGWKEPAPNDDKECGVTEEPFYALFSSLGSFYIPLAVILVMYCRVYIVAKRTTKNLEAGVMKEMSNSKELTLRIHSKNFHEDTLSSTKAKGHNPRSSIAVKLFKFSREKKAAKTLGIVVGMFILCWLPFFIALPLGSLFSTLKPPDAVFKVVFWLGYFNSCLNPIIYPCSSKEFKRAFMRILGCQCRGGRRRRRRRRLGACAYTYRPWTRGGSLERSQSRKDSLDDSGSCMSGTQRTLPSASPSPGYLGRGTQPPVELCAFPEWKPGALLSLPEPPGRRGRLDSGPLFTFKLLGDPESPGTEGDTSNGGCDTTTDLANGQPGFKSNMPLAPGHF
T1 sequence (P23944 whole entry): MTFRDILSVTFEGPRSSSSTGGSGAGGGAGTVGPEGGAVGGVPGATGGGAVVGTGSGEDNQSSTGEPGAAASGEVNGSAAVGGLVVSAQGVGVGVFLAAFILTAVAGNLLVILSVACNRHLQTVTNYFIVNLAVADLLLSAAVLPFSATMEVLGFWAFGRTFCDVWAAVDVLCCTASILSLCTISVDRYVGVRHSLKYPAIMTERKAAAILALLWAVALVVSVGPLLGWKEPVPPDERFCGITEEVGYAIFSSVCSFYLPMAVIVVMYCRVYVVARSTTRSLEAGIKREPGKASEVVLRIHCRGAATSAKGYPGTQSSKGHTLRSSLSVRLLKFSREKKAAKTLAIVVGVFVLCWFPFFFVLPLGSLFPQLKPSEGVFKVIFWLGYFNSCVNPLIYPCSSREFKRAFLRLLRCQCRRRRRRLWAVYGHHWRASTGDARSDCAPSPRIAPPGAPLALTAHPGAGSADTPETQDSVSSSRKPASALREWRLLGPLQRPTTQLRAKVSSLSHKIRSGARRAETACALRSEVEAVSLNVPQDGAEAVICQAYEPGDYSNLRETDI
T1 sequence (P43140 whole entry): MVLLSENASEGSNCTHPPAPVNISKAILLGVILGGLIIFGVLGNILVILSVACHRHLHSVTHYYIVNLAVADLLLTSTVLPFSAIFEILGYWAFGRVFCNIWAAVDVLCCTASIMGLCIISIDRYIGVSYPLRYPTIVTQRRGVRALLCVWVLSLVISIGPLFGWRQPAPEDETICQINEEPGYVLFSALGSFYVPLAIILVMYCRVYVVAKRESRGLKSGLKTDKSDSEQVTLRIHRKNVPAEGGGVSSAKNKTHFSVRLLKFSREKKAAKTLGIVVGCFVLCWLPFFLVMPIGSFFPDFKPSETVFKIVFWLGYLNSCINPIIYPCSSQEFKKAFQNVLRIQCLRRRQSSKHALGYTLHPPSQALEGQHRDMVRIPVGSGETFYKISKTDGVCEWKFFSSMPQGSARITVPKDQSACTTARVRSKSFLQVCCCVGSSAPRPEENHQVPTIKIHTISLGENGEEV
Assay: Evaluated for binding affinity against alpha-1 adrenergic receptor
Assay type: protein assay

COc1cccc(OC)c1OCCNCC1COc2ccccc2O1 (stereo unspecified)
Ki: 0.54 nM
